The text below walks through data of the ASAP Discovery antiviral challenge data (2025).

Usually solubility (kinetic) stands for the concentration staying in solution when a stock, usually in DMSO, is diluted into the medium. For orientation: Papp means a coefficient for how fast a substance crosses the barrier. Low values mean slow passage, high ones fast passage. For orientation: logD means lipophilicity at a set pH, counting ionised and neutral species. A lower logD goes with lower lipophilicity. Broadly, the microsomal CLint is a measure of how fast metabolising enzymes remove a compound, apart from limits set by blood flow.

≈ marks a conversion by molar mass, not a printed value. Where “and” joins values, the source holds several entries; their conditions need not be identical. Equal entries are not always repeated.

For data set [1] the following is noted: mdck_mdr1.
Assay in data set [2]: not given
The source holds these as a separate data set.

For data set [3] the following is noted: mouse; liver_microsomes.
For data set [4] the following is noted: human; liver_microsomes.

`CNC(=O)c1cc2c(N[C@H](c3ccc4c(c3)OCCO4)C(C)C)ncnc2[nH]1` (racemic) displayed a solubility (kinetic) of 380 µM (≈ 145 µg/mL). This compound gave a Papp in data set [1] of 1.96 ×10⁻⁶ cm/s. The compound also came in with a logD in data set [2] of 2.76. In data set [3], this compound yielded a microsomal CLint of 55 µL/min/mg. For the same compound, the microsomal CLint in data set [4] is 79 µL/min/mg.
The like results for `O=C(Nc1ccccc1)Nc1ccc(C(=O)NC2c3cccc(O)c3CC2C(=O)O)cc1` (centres undefined) were, in that order, 319 µM (≈ 138 µg/mL), 0.7 ×10⁻⁶ cm/s, 0.12, 2 µL/min/mg and 9 µL/min/mg.
Taken in the same sequence, the figures for `CC(C)[C@H](Nc1ncnc2[nH]c(-c3cnn(C)c3C#N)cc12)c1ccc2c(c1)OCCO2` were 15 µM (≈ 6.44 µg/mL), 5.56 ×10⁻⁶ cm/s, 3.3, 257 µL/min/mg and 706 µL/min/mg.
The like results for `CNC(=O)c1cc(Cl)ccc1NS(=O)(=O)c1ccc(Oc2ccccc2Cl)cc1` were, in that order, 25 µM (≈ 11.3 µg/mL), 4.91 ×10⁻⁶ cm/s, 2.4, 94 µL/min/mg and 106 µL/min/mg.
Consider `CNC(=O)c1c[nH]c2ncnc(N[C@H](c3ccc4c(c3)NC(=O)CO4)C(C)C)c12` (racemic), for which the kinetic solubility was 28 µM (≈ 11 µg/mL). In addition, the Papp in data set [1] came to 4.26 ×10⁻⁶ cm/s. Also, the logD in data set [2] stood at 3.2. Further, the microsomal CLint in data set [3] came out at 113 µL/min/mg. In data set [4], this compound gave a microsomal CLint of 86 µL/min/mg.
The compound `CC(C)[C@H](Nc1ncnc2[nH]c(-c3cnn(CC(N)=O)c3)cc12)c1ccc2c(n1)OCCO2` (racemic) came in with a kinetic solubility of 385 µM (≈ 173 µg/mL). For the same compound, the Papp in data set [1] was 2.46 ×10⁻⁶ cm/s. Moreover, in data set [2], the log distribution coefficient (logD) stood at 2.4. In data set [3], this compound yielded a microsomal CLint of 12 µL/min/mg. In data set [4], this compound registered a microsomal CLint of 14 µL/min/mg.
The like results for `Cn1ncc(-c2cc3c(N[C@H](c4ccc5c(n4)OCCO5)C(C)(C)C)ncnc3[nH]2)c1C#N` (single isomer, unassigned) were, in that order, 24 µM (≈ 10.7 µg/mL), 14 ×10⁻⁶ cm/s, 3.3, 226 µL/min/mg and 283 µL/min/mg.
Regarding `CC(C)[C@H](Nc1ncnc2[nH]c(-c3cnn(CC(N)=O)c3)cc12)c1ccc2c(n1)OCCO2` (single isomer, unassigned), the solubility (kinetic) is 377 µM and 395 µM. Besides, the apparent permeability coefficient (Papp) in data set [1] was 1.27 ×10⁻⁶ cm/s and 0.47 ×10⁻⁶ cm/s. The logD in data set [2] is 2.3 and 2.4. Moreover, the microsomal CLint in data set [3] was 5 µL/min/mg and 9 µL/min/mg. For the same compound, in data set [4], the microsomal CLint was 12 µL/min/mg and 18 µL/min/mg.
In the case of `CNCc1cc(-c2cc3c(N[C@H](c4ccc5c(c4)S(=O)(=O)NCC5)C(C)C)ncnc3[nH]2)co1` (racemic), the kinetic solubility stood at 372 µM (≈ 179 µg/mL). The compound further registered a Papp in data set [1] of 1.2 ×10⁻⁶ cm/s. This compound also yielded a logD in data set [2] of 1.9. The compound further returned a microsomal CLint in data set [3] of 42 µL/min/mg. Also, in data set [4], the microsomal CLint was 46 µL/min/mg.
The like results for `CC(C)[C@H](Nc1ncnc2[nH]c(-c3cnn(CC(N)=O)c3)cc12)c1ccc2c(c1)OCCO2` (racemic) were, in that order, 345 µM (≈ 154 µg/mL), 0.9 ×10⁻⁶ cm/s, 0.9, 41 µL/min/mg and 99 µL/min/mg.
`N#Cc1cc2c(cc1NC(=O)c1cc(F)cc3[nH]ncc13)CNC2`: the kinetic solubility worked out at 193 µM (≈ 62 µg/mL). The Papp in data set [1] was 3.9 ×10⁻⁶ cm/s. Also, in data set [2], the logD was determined as 0.6. In addition, the microsomal CLint in data set [3] came out at 288 µL/min/mg. This compound displayed a microsomal CLint in data set [4] of 16.7 µL/min/mg.
Taken in the same sequence, the figures for `CC(C)[C@@H](Nc1ncnc2[nH]c(-c3cnn(C)c3C#N)cc12)c1ccc2c(c1)OCCO2` were 20 µM (≈ 8.59 µg/mL), 5.11 ×10⁻⁶ cm/s, 3.4, 129 µL/min/mg and 47 µL/min/mg.
In turn, `O=C(Nc1ccc2c(c1)CNC2)c1cc(F)cc(-c2cn[nH]c2)c1` registered a solubility (kinetic) of 184 µM (≈ 59.3 µg/mL). In addition, the Papp in data set [1] was 1.62 ×10⁻⁶ cm/s. The compound also came in with a pH-dependent lipophilicity (logD) in data set [2] of 0.7. Besides, the microsomal CLint in data set [3] is 553 µL/min/mg. Also, the microsomal CLint in data set [4] stood at 36.3 µL/min/mg.
The like results for `COc1ccc([C@H](Cc2nnn[nH]2)NC(=O)c2ncnc3[nH]ccc23)cc1` (single isomer, unassigned) were, in that order, 367 µM (≈ 134 µg/mL), 1.07 ×10⁻⁶ cm/s, -0.5, 7 µL/min/mg and 2 µL/min/mg.
The like results for `CC(C)[C@H](Nc1ncnc2[nH]c(-c3cncc(S(C)(=O)=O)c3)cc12)c1ccc2c(c1)S(=O)(=O)CCC2` (racemic) were, in that order, 31 µM (≈ 16.3 µg/mL), 0.491 ×10⁻⁶ cm/s, 3.1, 272 µL/min/mg and 635 µL/min/mg.
Taken in the same sequence, the figures for `CC(C)[C@H](Nc1ncnc2[nH]c(-c3cnn(CC(=O)N(C)C)c3)cc12)c1ccc2c(c1)S(=O)(=O)CCC2` (racemic) were 38 µM (≈ 19.8 µg/mL), 0.67 ×10⁻⁶ cm/s, 2.1, 68 µL/min/mg and 106 µL/min/mg.
Take `CN(c1ccc2c(c1)CNC2)[C@H](C(=O)NCC(F)F)c1cc(Cl)cc(C2CC2)c1` (racemic): the solubility (kinetic) was found to be 172 µM (≈ 72.2 µg/mL). Besides, the Papp in data set [1] was 2.1 ×10⁻⁶ cm/s. Besides, in data set [2], the log distribution coefficient (logD) was found to be 1.6. Besides, the microsomal CLint in data set [3] was 10.6 µL/min/mg. In addition, the intrinsic clearance (microsomal CLint) in data set [4] came out at 17.1 µL/min/mg.
Taken in the same sequence, the figures for `CC(C)[C@H](Nc1ncnc2[nH]c(-c3cnn(C)c3C#N)cc12)c1ccc2c(c1)NC(=O)CO2` (racemic) were 69 µM (≈ 30.5 µg/mL), 3.07 ×10⁻⁶ cm/s, 4.1, 177 µL/min/mg and 100 µL/min/mg.
`CNC(=O)Cn1cc(-c2cc3c(N[C@H](c4ccc5c(c4)OCCO5)C(C)C)ncnc3[nH]2)cn1` (racemic) displayed a solubility (kinetic) of 289 µM (≈ 133 µg/mL). In data set [1], this compound showed an apparent permeability (Papp) of 1.94 ×10⁻⁶ cm/s. The compound further registered a logD in data set [2] of 2.9. Besides, the microsomal CLint in data set [3] was found to be 47 µL/min/mg. Further, in data set [4], the intrinsic metabolic clearance (microsomal CLint) was 119 µL/min/mg.
Taken in the same sequence, the figures for `CC(C)(C)[C@H](Nc1ncnc2[nH]c(-c3cnn(CC(N)=O)c3)cc12)c1ccc2c(c1)OCCO2` (racemic) were 195 µM (≈ 90 µg/mL), 1.66 ×10⁻⁶ cm/s, 3.2, 47 µL/min/mg and 133 µL/min/mg.
The like results for `C[C@H](C(=O)O)[C@@H](NC(=O)c1ncnc2[nH]ccc12)c1ccc(Br)cc1` (single isomer, unassigned) were, in that order, 358 µM (≈ 144 µg/mL), 0.682 ×10⁻⁶ cm/s, 0.6, 4 µL/min/mg and 3 µL/min/mg.
Regarding `CNC(=O)Cn1cc(-c2cc3c(N[C@H](c4ccc5c(c4)S(=O)(=O)CCC5)C(C)C)ncnc3[nH]2)cn1` (single isomer, unassigned), the solubility (kinetic) was 323 µM and 294 µM. For the same compound, in data set [1], the Papp was 0.396 ×10⁻⁶ cm/s and 0.916 ×10⁻⁶ cm/s. Further, in data set [2], the logD is 2.4 and 2.3. The intrinsic metabolic clearance (microsomal CLint) in data set [3] is 111 µL/min/mg and 44 µL/min/mg. Also, in data set [4], the microsomal CLint was 92 µL/min/mg and 237 µL/min/mg.
On to `CC(C)[C@H](Nc1ncnc2[nH]c(-c3cnn(C)c3C#N)cc12)c1ccc2c(c1)S(=O)(=O)CCC2` (single isomer, unassigned), for which the solubility (kinetic) is 22 µM and 26 µM. Besides, the Papp in data set [1] was 4.33 ×10⁻⁶ cm/s and 1.82 ×10⁻⁶ cm/s. Also, the logD in data set [2] was 3.3 and 3.7. In data set [3], the microsomal CLint is 311 µL/min/mg and 709 µL/min/mg. Also, in data set [4], the microsomal CLint is 935 µL/min/mg and 516 µL/min/mg.
`CC(C)[C@H](Nc1ncnc2[nH]c(-c3cnn(C)c3C#N)cc12)c1ccc2c(c1)OCCO2` (racemic) had a solubility (kinetic) of 17 µM (≈ 7.3 µg/mL). Further, in data set [1], the Papp was determined as 4.2 ×10⁻⁶ cm/s. In data set [2], this compound displayed a logD of 3. The same compound had a microsomal CLint in data set [3] of 218 µL/min/mg. In data set [4], this compound gave a microsomal CLint of 74 µL/min/mg.
The like results for `CC(C)[C@H](Nc1ncnc2[nH]c(-c3cnn(C)c3C#N)cc12)c1ccc2c(n1)OCCO2` (racemic) were, in that order, 89 µM (≈ 38.3 µg/mL), 12.8 ×10⁻⁶ cm/s, 3.4, 139 µL/min/mg and 56 µL/min/mg.
Taken in the same sequence, the figures for `CNC(=O)Cn1cc(-c2cc3c(N[C@H](c4ccc5c(c4)S(=O)(=O)CCC5)C(C)C)ncnc3[nH]2)cn1` (racemic) were 306 µM (≈ 155 µg/mL), 0.47 ×10⁻⁶ cm/s, 2.4, 77 µL/min/mg and 94 µL/min/mg.
Taken in the same sequence, the figures for `O=C(Nc1cc(Br)c2c(c1)CNC2)c1cc(F)cc2[nH]ncc12` were 4 µM (≈ 1.5 µg/mL), 3.4 ×10⁻⁶ cm/s, 1.8, 145 µL/min/mg and 13.6 µL/min/mg.
Take `CNC(=O)c1cc2c(N[C@H](c3ccc4c(c3)NC(=O)CO4)C(C)C)ncnc2[nH]1` (single isomer, unassigned): the solubility (kinetic) was found to be 380 µM (≈ 150 µg/mL). Also, the Papp in data set [1] worked out at 1.21 ×10⁻⁶ cm/s. The compound also came in with a logD in data set [2] of 2.9. In data set [3], this compound had a microsomal CLint of 33 µL/min/mg. The compound also had a microsomal CLint in data set [4] of 175 µL/min/mg.
As to `CCNC(=O)c1cc2c(N[C@H](c3ccc4c(c3)S(=O)(=O)CCO4)C(C)C)ncnc2[nH]1` (racemic), the solubility (kinetic) is 328 µM (≈ 145 µg/mL). Besides, the Papp in data set [1] came out at 0.471 ×10⁻⁶ cm/s. Further, in data set [2], the pH-dependent lipophilicity (logD) was determined as 2.9. In data set [3], the microsomal CLint is 26 µL/min/mg. Besides, in data set [4], the microsomal CLint came out at 64 µL/min/mg.
Taken in the same sequence, the figures for `CC(C)[C@H](Nc1ncnc2[nH]c(-c3cnn(C)c3C#N)cc12)c1ccc2c(c1)S(=O)(=O)CCC2` (racemic) were 34 µM (≈ 16.2 µg/mL), 1.97 ×10⁻⁶ cm/s, 3.6, 440 µL/min/mg and 490 µL/min/mg.
Taken in the same sequence, the figures for `CNC(=O)c1c[nH]c2ncnc(N[C@H](c3ccc4c(c3)S(=O)(=O)CCC4)C(C)C)c12` (racemic) were 390 µM (≈ 167 µg/mL), 2.23 ×10⁻⁶ cm/s, 2.5, 192 µL/min/mg and 131 µL/min/mg.
For the compound `CNCc1cc(-c2cc3c(N[C@H](c4ccc5c(c4)S(=O)(=O)CCC5)C(C)C)ncnc3[nH]2)co1` (single isomer, unassigned), the kinetic solubility was 358 µM and 345 µM. Further, the logD in data set [2] was 2.1 and 2.2. Moreover, in data set [3], the microsomal CLint was 40 µL/min/mg and 54 µL/min/mg. Moreover, the microsomal CLint in data set [4] is 67 µL/min/mg and 133 µL/min/mg.
